Measurements published in ChEMBL document CHEMBL3351554, “Benzophenone C- and O-glucosides from Cyclopia genistoides (Honeybush) inhibit mammalian α-glucosidase” (2014).
Calls of active or inactive are those of the source. The calls are words filed in the database; no cut-off is given here.

Key:
[1] = system: HepG2/C3A; experiment: Increase in [3H]-2-DOG uptake in human HepG2/C3A cells at 0.001 to 100 uM after 3 hr by liquid scintillation counting relative to vehicle-treated control
[2] = system: 3T3-L1; experiment: Increase in [3H]-2-DOG uptake in mouse 3T3L1 cells at 0.001 to 100 uM after 3 hrs by liquid scintillation counting relative to vehicle-treated control
[3] = organism: Rattus norvegicus; experiment: Inhibition of rat intestinal alpha-glucosidase using 7-O-alpha-D-glucopyranosyl 4-methylumbelliferone preincubated for 15 mins at 100 to 400 uM prior substrate addition measured over 30 mins by fluorescence assay
[4] = organism: Rattus norvegicus; experiment: Inhibition of rat intestinal alpha-glucosidase using 7-O-alpha-D-glucopyranosyl 4-methylumbelliferone preincubated for 15 mins at 50 to 200 uM prior substrate addition measured over 30 mins by fluorescence assay
[5] = system: L6; experiment: Increase in [3H]-2-DOG uptake in rat L6 cells at 10 uM after 1 hr by liquid scintillation counting relative to vehicle-treated control; assay type: functional
[6] = organism: Rattus norvegicus; experiment: Inhibition of rat intestinal alpha-glucosidase using 7-O-alpha-D-glucopyranosyl 4-methylumbelliferone preincubated for 15 mins at 200 uM prior substrate addition measured over 30 mins by fluorescence assay

| Compound | Activity [1] | Activity [2] | inhibition [3] | inhibition [4] | Activity [5] [%] | inhibition [6] [%] |
| --- | --- | --- | --- | --- | --- | --- |
| O=C(c1ccc(O)cc1)c1c(O)cc(O)c([C@@H]2O[C@H](CO)[C@@H](O)[C@H](O)[C@H]2O)c1O | Active | Active | Active | – | – | – |
| O=C(c1ccc(O)c(O)c1)c1c(O)cc(O)cc1O | – | – | – | inactive | – | – |
| O=C(c1ccc(O)cc1)c1c(O)cc(O[C@@H]2O[C@H](CO)[C@@H](O)[C@H](O)[C@H]2O)c([C@@H]2O[C@H](CO)[C@@H](O)[C@H](O)[C@H]2O)c1O | Active | Active | Active | – | 22 | 43 |
| O=C(c1ccc(O)c(O)c1)c1c(O)cc(O)c([C@@H]2O[C@H](CO)[C@@H](O)[C@H](O)[C@H]2O)c1O | – | – | – | – | – | 54 |
